# Columns and labels:
# [1] = tested on: adult male mice (CD-1); format: in vivo
# Procedure: (§1) For this purpose, adult male mice (CD-1) were used. Two experiments were performed to test polymyxin B effectiveness: polymyxin B was administered concomitantly with α-amanitin and four hours after administration of α-amanitin. Concomitant therapy consisted of 0.33 mg/kg of α-amanitin followed by 2.5 mg/kg of polymyxin B (one administration). In the second experiment, three 2.5 mg/kg administrations of polymyxin B were used in different time-points [4, 8 and 12 h, intraperitoneal (i.p.) administration] after one α-amanitin (dose 0.33 mg/kg i.p.) exposure, as to mimic the clinical scenario of late intoxication diagnosis; human intoxication is often only found hours later when symptoms become clinically relevant. […] Moreover 50% of animal exposed to polymyxin B 4, 8 and 12 h after α-amanitin survived […]. In order to validate and unveil some mechanisms involved, an acute study with the same doses and scheme was performed, with animals being sacrificed 24 h after α-amanitin administration.
# FIG. 1. Survival curves after concomitant i.p. administration of 0.33 mg/kg of α-amanitin and polymyxin B (Ama+Pol— 2.5 mg/kg) and 3 administrations of polymyxin B (Ama+Pol— 3×2.5 mg/kg) at different time-points (4, 8 and 12 h, i.p. administration) after one α-amanitin (dose 0.33 mg/kg i.p.). Results are expressed in percent survival. Control tests were performed (Control), consisting of a saline-control treatment. A polymyxin treatment (Pol) was additionally performed. A treatment with α-amanitin (Ama) as also made.
# For this purpose, adult male mice (CD-1) were used. Two experiments were performed to test polymyxin B effectiveness: polymyxin B was administered concomitantly with α-amanitin and four hours after administration of α-amanitin. Concomitant therapy consisted of 0.33 mg/kg of α-amanitin followed by 2.5 mg/kg of polymyxin B (one administration). In the second experiment, three 2.5 mg/kg administrations of polymyxin B were used in different time-points (4, 8 and 12 h, i.p. administration) after one α-amanitin exposure (0.33 mg/kg i.p dose), as to mimic the clinical scenario of late intoxication diagnosis; human intoxication is often only found hours later when symptoms become clinically relevant. […] Moreover, 50% of animals exposed to polymyxin B 4, 8 and 12 h after α-amanitin survived (FIG. 1). In order to validate and unveil some mechanisms involved, an acute study with the same doses and scheme was performed with polymyxin B 4, 8 and 12 h after α-amanitin administration. Animals were sacrificed 24 h after α-amanitin administration. […] The renal corpuscles appearance is heterogeneous, with a wide capsular space, and thickened external Bowman capsule. […]
# [2] = tested on: adult male mice (CD-1); assay: Acute study, animals sacrificed 24 h after α-amanitin: plasma aminotransferases, liver and kidney histology; format: in vivo
# Procedure: as §1
# FIG. 2. Plasma levels of Aspartate aminotransferase (AST) and alanine aminotransferase (ALT) in control, polymyxin B (3×2.5 mg/kg) (Pol), α-amanitin (Ama) and α-amanitin+polymyxin B (3×2.5 mg/kg) (Ama+Pol) groups. Results are presented as means±standard deviation (SD), and were obtained from 4-5 animals from each treatment. Statistical comparisons were made using Kruskal-Wallis ANOVA on Ranks followed by the Dunn's post hoc test (*p<0.05, Ama vs. control; #p<0.05, Ama vs. Ama+Pol).
# FIG. 3. Liver histopathology by light microscopy. (A) Light micrograph (40×) from α-amanitin treated-group. The presence of cellular oedema (1), cytoplasmic vacuolization (2), interstitial inflammatory cell infiltration (3), as well as some necrotic zones can be seen (4). (B) Light micrograph (40×) from α-amanitin+polymixin B (3×2.5 mg/kg) group. […] Increase number interstitial inflammatory cell was still observed.
# FIG. 4. Kidney histopathology by light microscopy (A) Light micrograph (10×) from α-amanitin-treated group. The presence of cytoplasmatic vacuolization (5), renal corpuscles with a wide capsular space, and thickened external Bowman capsule (6), as well as some necrotic zones can be seen (7). The presence large amounts of fibrin-related material cause enlargement and obstruction of distal tubules (8). (B) Light micrograph (10×) from α-amanitin+polymixin B (3×2.5 mg/kg) group.
# For this purpose, adult male mice (CD-1) were used. Two experiments were performed to test polymyxin B effectiveness: polymyxin B was administered concomitantly with α-amanitin and four hours after administration of α-amanitin. Concomitant therapy consisted of 0.33 mg/kg of α-amanitin followed by 2.5 mg/kg of polymyxin B (one administration). In the second experiment, three 2.5 mg/kg administrations of polymyxin B were used in different time-points (4, 8 and 12 h, i.p. administration) after one α-amanitin exposure (0.33 mg/kg i.p dose), as to mimic the clinical scenario of late intoxication diagnosis; human intoxication is often only found hours later when symptoms become clinically relevant. […] Moreover, 50% of animals exposed to polymyxin B 4, 8 and 12 h after α-amanitin survived (FIG. 1). In order to validate and unveil some mechanisms involved, an acute study with the same doses and scheme was performed with polymyxin B 4, 8 and 12 h after α-amanitin administration. Animals were sacrificed 24 h after α-amanitin administration. […] The renal corpuscles appearance is heterogeneous, with a wide capsular space, and thickened external Bowman capsule. […] Marked atrophy and degeneration of distal tubules cells was also observed, and large amounts of fibrin-related material caused enlargement and obstruction of these tubules.
# [3] = 24 h after α-amanitin 0.33 mg/kg i.p., polymyxin B 3×2.5 mg/kg at 4, 8 and 12 h
# [4] = 24 h after α-amanitin 0.33 mg/kg i.p., polymyxin B 3×2.5 mg/kg at 4, 8 and 12 h, listed as polymixin B
compound,measurement,setting,value
CC[C@H](C)[C@@H]1NC(=O)CNC(=O)[C@@H]2Cc3c([nH]c4cc(O)ccc34)[S@+]([O-])C[C@H](NC(=O)CNC1=O)C(=O)N[C@@H](CC(N)=O)C(=O)N1C[C@H](O)C[C@H]1C(=O)N[C@@H]([C@@H](C)[C@@H](O)CO)C(=O)N2 [α-amanitin],day until which all animals died,"[1]; single dose of α-amanitin 0.33 mg/kg i.p., no antidote",≤ 5 days
polymyxin B,signs of injury or discomfort,"[1]; concomitant polymyxin B 2.5 mg/kg with α-amanitin 0.33 mg/kg, up to day 30",without major signs of injury or discomfort
same,animals that survived,"[1]; polymyxin B 3×2.5 mg/kg i.p. at 4, 8 and 12 h after α-amanitin 0.33 mg/kg i.p.",50%
same,animals that survived until the 30th day,"[1]; α-amanitin 0.33 mg/kg i.p. followed by polymyxin B 2.5 mg/kg, one concomitant administration",100%
same,kidney histology (light microscopy),[2]; [3],"protected against the occurrence of the above referred alterations, particularly the necrosis and the obstruction of distal tubules"
same,liver histology (light microscopy),[2]; [3],significant reversion against α-amanitin-induced necrotic changes as well as the induced oedema and cytoplasmic vacuolization
same,"plasma aminotransferases (AST, ALT)",[2]; [3],totally reverted
same,kidney histology (light microscopy),[2]; [4],"oedema, cytoplasmatic vacuolization and necrosis, were significantly attenuated"
same,liver histology (light microscopy),[2]; [4],"oedema, cytoplasmatic vacuolization and necrosis, were significantly attenuated"
same,hepatic and renal damage (histological and plasma data),"[2]; 24 h after α-amanitin administration, same doses and scheme",protected against hepatic and renal damage caused by α-amanitin

# Reference: US20180264074A1, “USE OF POLYMYXIN AS AN ANTIDOTE FOR INTOXICATIONS BY AMATOXINS” (UNIVERSIDADE DO PORTO, priority 2015, published 2018)
